Assay results from US20150056310A1, “COSMETIC METHOD FOR INCREASING COLLAGEN EXPRESSION IN SKIN COMPRISING TOPICALLY APPLYING AN EXTRACT OF QUASSIA AMARA” (BASF Beauty Care Solutions France S.A.S., priority 2013, published 2015).

Test system: type I collagen protein expression in dermal fibroblast cells
Test: Increase in type I collagen protein expression in dermal fibroblast cells cultured in vitro (immunolabelling, confocal microscopy, image analysis)
Assay type: cell-based, human
Conditions: 3 days, dermal fibroblasts, ratio relative to nontreated cells (NT = 1), mean of 4 assays
Protocol: A Q. amara wood extract at 5% (w/w) obtained according to Example 1a) was tested on dermal fibroblast cells cultured in vitro. The extract was tested at final concentrations of 0.01% and 0.05% by volume in the culture medium. Preferentially, the final concentration was 0.01% (v/v).
Specifically, dermal fibroblasts from the abdomen of a donor were seeded into a culture chamber (8-well) and amplified in FGM (Fibroblast Growth Media) culture medium containing an antibiotic, normocin, for 3 or 4 days until confluence, the cell stage for which 100% of the cultured cells adhere to one another, forming a uniform cell layer.
The confluent cells were then treated in this same culture medium for 3 days with a Q. amara wood extract at a final concentration in the culture medium of 0.01% or 0.05% (v/v) (Table 1). Other control active ingredients were tested (Table 1): vitamin C (50 μg/ml) or retinaldehyde (1 μM) or TGFβ1 (1 ng/ml) (Transforming Growth Factor β1).
The culture media (FGM) containing the dermal fibroblast cells treated with an active agent, or the nontreated culture media, contained moreover 5 μg/ml of vitamin C, enabling the newly synthesized collagen to be secreted out of the cell.
After 3 days of incubation, the cells were rinsed with a phosphate buffered saline (PBS) buffer containing calcium, magnesium and antibiotics, and then fixed in cold methanol for 10 minutes with a view to performing immunolabelling.
An anti-type I collagen antibody was added to the medium with a view to performing immunolabelling.
The increase in type I collagen protein expression was observed by confocal microscopy (LSM 700, Zeiss, LePecq, France) and quantified by image analysis (FIG. 1).
The type I collagen protein expression was calculated as a ratio relative to a theoretical expression equal to 1 in the case of nontreated fibroblast cells (NT). The mean protein expression was obtained through the mean of 4 distinct assays (Table 1).

## O=C1O[C@H]([C@@H](O)CO)C(O)=C1O [Vitamin C, vitamin C]
50 μg/ml
  Mean increase in type I collagen protein expression: 2.31

## TGFβ: Transforming Growth Factor β1, control active ingredient
1 ng/ml
  Mean increase in type I collagen protein expression: 1.42

## CC1=C(/C=C/C(C)=C/C=C/C(C)=C/C=O)C(C)(C)CCC1 [Retinaldehyde, retinaldehyde]
1 μM
  Mean increase in type I collagen protein expression: 2.06
